Laboratory results reported in patent publication US11873298B2, “Compounds and uses thereof” (JANSSEN PHARMACEUTICA NV, priority 2017, dated 2024).
Where “and” joins values, the source holds several entries; their conditions need not be identical. Equal values may be shown once.

Assays:
[1] = biological target: T1, Ole1 (Saccharomyces cerevisiae, UniProt P21147); experiment: Growth inhibition of yeast strain expressing Ole1 as sole desaturase; format: cell-based; conditions: yeast strain expressing Ole1 as sole desaturase
T1 construct: expressed in transfected cells; host or cells: S. cerevisiae ole1Δ strain (W303 pdr1Δ pdr3Δ background), plasmid pRS316 with TDH3 promoter and CYC1 terminator
T1 sequence (P21147 1-510): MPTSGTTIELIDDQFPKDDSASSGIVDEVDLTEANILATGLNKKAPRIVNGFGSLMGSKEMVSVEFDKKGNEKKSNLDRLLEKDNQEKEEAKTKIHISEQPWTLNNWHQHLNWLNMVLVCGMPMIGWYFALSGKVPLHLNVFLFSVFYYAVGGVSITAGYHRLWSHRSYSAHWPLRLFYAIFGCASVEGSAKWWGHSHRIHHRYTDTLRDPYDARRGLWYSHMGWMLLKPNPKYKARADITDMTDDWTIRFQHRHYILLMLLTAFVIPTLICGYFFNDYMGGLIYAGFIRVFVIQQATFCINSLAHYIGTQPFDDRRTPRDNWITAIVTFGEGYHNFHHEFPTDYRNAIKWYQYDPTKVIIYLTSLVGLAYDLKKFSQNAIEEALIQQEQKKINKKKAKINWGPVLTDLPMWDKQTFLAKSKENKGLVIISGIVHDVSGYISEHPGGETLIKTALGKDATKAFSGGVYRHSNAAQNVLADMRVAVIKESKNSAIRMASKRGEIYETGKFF
Summary of the method: (§1)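 Plasmid-complemented ole1Δ yeast, drug-pump deleted (pdr1Δ pdr3Δ), depend solely on the introduced Ole1, SCD1 or SCD5 desaturase. Compounds are added from DMSO to cells in uracil-free galactose medium, 2× density 0.02, and OD600 is read after 24 h or 40 h respectively.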

[2] = biological target: T2, SCD1 (Homo sapiens, UniProt O00767); experiment: Growth inhibition of humanized yeast strain expressing SCD1 as sole desaturase; format: cell-based; conditions: humanized yeast strain expressing SCD1
T2 construct: host or cells: S. cerevisiae ole1Δ strain (W303 pdr1Δ pdr3Δ background), plasmid pRS316 with TDH3 promoter and CYC1 terminator
T2 sequence (O00767 1-359): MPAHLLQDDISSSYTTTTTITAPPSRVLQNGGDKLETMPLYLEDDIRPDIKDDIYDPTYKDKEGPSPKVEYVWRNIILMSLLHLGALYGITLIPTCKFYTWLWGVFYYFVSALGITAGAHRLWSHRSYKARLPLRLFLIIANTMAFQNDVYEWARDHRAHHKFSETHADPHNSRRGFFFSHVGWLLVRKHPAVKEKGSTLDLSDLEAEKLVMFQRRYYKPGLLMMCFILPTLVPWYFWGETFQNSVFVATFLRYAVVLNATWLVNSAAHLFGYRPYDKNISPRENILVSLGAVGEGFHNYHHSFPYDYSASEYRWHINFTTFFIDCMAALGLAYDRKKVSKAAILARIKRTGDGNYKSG
Summary of the method: as §1

[3] = biological target: T3, SCD5 (Homo sapiens, UniProt Q86SK9); experiment: Growth inhibition of humanized yeast strain expressing SCD5 as sole desaturase; format: cell-based; conditions: humanized yeast strain expressing SCD5
T3 construct: host or cells: S. cerevisiae ole1Δ strain (W303 pdr1Δ pdr3Δ background), plasmid pRS316 with TDH3 promoter and CYC1 terminator
T3 sequence (Q86SK9 1-330): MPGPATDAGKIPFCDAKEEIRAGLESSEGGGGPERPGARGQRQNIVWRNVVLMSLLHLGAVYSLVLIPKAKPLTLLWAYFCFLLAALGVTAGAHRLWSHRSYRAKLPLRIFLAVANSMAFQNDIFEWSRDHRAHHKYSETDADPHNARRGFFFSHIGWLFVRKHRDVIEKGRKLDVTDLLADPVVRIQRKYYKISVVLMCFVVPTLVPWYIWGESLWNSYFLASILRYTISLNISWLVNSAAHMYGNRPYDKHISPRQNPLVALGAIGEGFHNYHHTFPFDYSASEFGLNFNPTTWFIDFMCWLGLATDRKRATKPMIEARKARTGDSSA
Summary of the method: as §1

[4] = system: yeast strains expressing the human ApoE4; experiment: Yeast ApoE4 toxicity rescue assay (OD600 growth); conditions: 24 h; for EC50: read-out: ApoE4 EC50; for Emax: read-out: ApoE4 Emax
[5] = system: yeast strains expressing the human α-synuclein; experiment: Yeast α-synuclein toxicity rescue assay (OD600 growth); conditions: 40 h; for EC50: read-out: α-Syn EC50; for Emax: read-out: α-Syn Emax
From the text: The induced expression of α-synuclein and ApoE4 confers cytotoxicity, thus enabling the identification of compounds that can restore cell viability. This instantaneous/synchronous induction of α-synuclein and ApoE4 can be achieved due to the following expression control. In glucose-containing media, gene expression from the GAL1 promoter is ‘off’ and actively repressed by additional epigenetic factors. In raffinose, expression is ‘off’, but the promoter not actively repressed. Upon transition to galactose-containing media, the promoter is instantaneously turned ‘on’ to achieve robust and synchronous induction of α-synuclein or ApoE4 expression. This highly regulated induction provides a robust window for the determination of both efficacy (amplitude of protective effect) and potency (concentration of protective effect) of cytoprotective compounds.
Re-suspended compound stocks were subsequently arrayed into 384 well compound plates using automated pipetting. All other wells not receiving stock compound were filled with 10 μL of 100% DMSO using an automated plate filler (Multidrop Combi). An 11 point, 2-fold serial dilution was then performed using the robotic platform. Compound assay plates were covered with foil and stored at −20° C. until use.
Each strain was handled according to standard protocols and cultured in media composed of CSM (complete synthetic media), YNB (yeast nitrogenous base), and a 2% (w/v) carbon source (either glucose, raffinose, or galactose).
In a standard yeast assay, a single-use aliquot of cells was thawed on ice and diluted into CSM/glucose (5 mL). Cultures were grown for 8 hours at 30° C. This pre-growth enables the yeast to exit the thaw and begin to grow without expressing aSyn or ApoE4. After 8 hours, cell density (OD600) was determined and cultures diluted to an OD600 of 0.01 in CSM/raffinose for an overnight culture phase at 30° C. During this period, the active glucose repression of the GAL1 promoter was relieved; however, expression of the α-Syn/ApoE4 genes were not yet induced. After ˜16 hours of growth, cultures attain an OD600 of 0.4-0.8 and were ready to apply to assay plates containing compound.
Compound profiling assays were executed in clear-bottom 384 well plates. First, compound plates were thawed at room temperature for 45′, centrifuged at 1,000×g for 1 minute, and the foil removed. Clear 384 well assay plates were then filled with 15 μL of CSM/galactose. […] The pin tool was washed iteratively with both 50% DMSO and 100% ethanol between each assay plate. After delivering compound to each assay plate, the overnight CSM/raffinose aSyn or ApoE4 cultures were added at a 2X cell density (0.04 for aSyn and 0.08 for ApoE4) in CSM/galactose to achieve a final assay OD600 of 0.02 and 0.04 for aSyn and ApoE, respectively. The cultures (15 μL per well) were then dispensed to the compound -containing 384 well assay plates using an automated plate filler. Plates were incubated in a humidified 30° C. incubator for 40 or 24 hours for aSyn and ApoE4, respectively. The ODsoo of each assay plate was then read with a microplate reader (e.g., Perkin Elmer Envision).
The efficacy and potency of compounds were calculated according to the following. Raw data (OD600 values) were first background corrected to account for OD600 contributed by the plate and media itself. The efficacy (percent above DMSO, herein referred to as “Emax”) was calculated according to the equation: (Experimental well−DMSO control well)/(DMSO control well)*100. […] Normalized dose-response data was fit with a logistic regression curve using Spotfire (TIBCO), or similar curve-fitting software package. EC50 values were then reported along with EMax to provide both efficacy and potency measures for each analog and enable further compound design.

| Structure (SMILES) | IC50 [1] [µM] | OLE1 % Max Inhibition [1] | IC50 [2] [µM] | SCD1 % Max Inhibition [2] | IC50 [3] [µM] | SCD5 % Max Inhibition [3] [%] | EC50 [4] [µM] | Emax [4] [%] | EC50 [5] [µM] | Emax [5] [%] |
| --- | --- | --- | --- | --- | --- | --- | --- | --- | --- | --- |
| Cc1ccc(-c2noc(C3CCN(C(=O)[C@H]4CC(=O)N(c5ccc(C)c(C)c5)C4)CC3)n2)cc1 (single isomer, unassigned) [Compound 61] | 40.9 | 71.50% | > 45 | 2.37% | > 45 | 13.18 | 19.4 | 465 | 19.7 | 229 |
| COc1ccc(-c2nsc(C3CCN(C(=O)CNC(=O)c4ccccc4)CC3)n2)cc1OC [Compound 35] | > 45 | 3.66% | > 45 | 79.23% | > 45 | 68.57 | 1.12 | 911 | 0.052 | 626 |
| CCOc1ccc(-c2noc(C3CCN(C(=O)C4CC(=O)N(c5ccccc5)C4)CC3)n2)cc1OC (centres unmarked) [compound 84] | – | – | – | – | – | – | 0.956 | 866 | 0.06 | 463 |
| COc1ccc(-c2noc(C3CCN(C(=O)[C@@H]4CC(=O)N(c5ccccc5)C4)CC3)n2)cc1OC [compound 66] | > 45 | – | – | – | – | – | 21.2 | 790 | 11.1 | 350 |
| COc1ccc(-c2noc(C3CCN(C(=O)Cc4cncc(C)n4)CC3)n2)cc1OC [Compound 45] | – | – | – | – | – | – | 29.3 | 19 | 26 | 121 |
| COc1ccc(-c2noc(C3CCN(C(=O)COc4cc(O)c5c(c4)OC(C)(C)CC5=O)CC3)n2)cc1OC [compound 77] | – | – | – | – | – | – | – | 436 | – | 345 |
| COc1ccc(-c2noc(C3CCN(C(=O)[C@@H]4CC(=O)N(c5ccc(C)c(C)c5)C4)CC3)n2)cc1OC [compound 68] | > 45 | – | – | – | – | – | 3.12 | 775 | 1.86 | 652 |
| COc1ccc(-c2noc(C3CCN(C(=O)C4CC(=O)N(c5ccccc5)C4)CC3)n2)cc1OC (centres unmarked) [compound 18] | > 45 | – | – | – | > 45 | – | 1.51 | 826 | 0.266 | 452 |
| COc1ccc(-c2noc(C3CCN(C(=O)[C@H]4CC(=O)N(c5ccccc5)C4)CC3)n2)cc1OC [compound 65] | > 45 | – | – | – | – | – | 0.987 | 779 | 0.036 | 643 |
| CC1(C)CC(=O)c2c(O)cc(OCC(=O)N3CCC(c4nc(-c5ccccc5)no4)CC3)cc2O1 [compound 76] | – | – | – | – | – | – | 14.8 | 162 | 9.92 | 76 |
| O=C(NC1CC1c1ccccc1)N1CCC(c2nc(-c3ccc4ccccc4n3)no2)CC1 (centres unmarked) [compound 82] | – | – | – | – | – | – | 16.8 | 40 | – | – |
| Cc1ccc(-c2nc(C3CCN(C(=O)[C@@H]4CC(=O)N(c5ccc(C)c(C)c5)C4)CC3)no2)cc1 [compound 72] | > 45 | – | 27.3 | – | 33 | – | – | – | 12.7 | 35 |
| Cc1nn(C)c2ccc(-c3noc(C4CCN(C(=O)N5CCCCC5)CC4)n3)cc12 [Compound 117] | > 45 | 92.97% | > 45 | 95.94% | 36.1 | 54.63 | – | – | 7.5 | 124 |
| CCOc1ccc(-c2noc(C3CCN(C(=O)CNC(=O)c4ccccc4)CC3)n2)nc1OC [Compound 107] | > 45 | 4.55% | > 45 | 73.32% | > 45 | 74.80 | – | – | 2.9 | 312 |
| Cc1nn(C)c2cc(-c3noc(C4CCN(C(=O)C5CC(=O)N(c6ccccc6)C5)CC4)n3)ncc12 (centres unmarked) [Compound 120] | > 45 | 119.08% | > 45 | 99.80% | > 45 | 96.39 | – | – | 19.5 | 139 |
| COc1ccc(-c2noc(C3CCN(C(=O)CN(C)C(=O)c4ccccc4)CC3)n2)cc1OC [compound 22] | 40.5 | – | – | – | 30 | – | – | 372 | 8.42 | 334 |
| CCOc1ccc(-c2noc(N3CCC(C(=O)N4CCOC(c5ccccc5)C4)CC3)n2)cc1OC (centres unmarked) [Compound 112] | > 45 | 3.16% | > 45 | 66.76% | > 45 | 21.21 | – | – | 0.32 | 258 |
| Cc1nn(C)c2cc(-c3noc(C4CCN(C(=O)CNC(=O)c5ccccc5)CC4)n3)ncc12 [Compound 114] | > 45 | 90.17% | > 45 | 74.54% | > 45 | 77.66 | – | – | 17.3 | 373 |
| Cc1nn(C)c2cc(-c3noc(C4CCN(C(=O)CNC(=O)c5ccccc5)CC4)n3)ccc12 [Compound 40] | > 45 | 1.26% and 0.80% and 4.9% | > 45 | 41.70% and 47.19% and 57.7% | > 45 | – | – | – | 0.086 | 443 |
| COc1ccc(-c2noc(C3CCN(C(=O)CNC(=O)C(C)C)CC3)n2)cc1OC [Compound 47] | > 45 | 109.20% | > 45 | 73.30% | > 45 | 74.25 | – | – | 16.5 | 88 |
| Cc1noc2cc(-c3noc(C4CCN(C(=O)C5CC(=O)N(c6ccccc6)C5)CC4)n3)ccc12 (centres unmarked) [Compound 136] | > 45 | 73.60% | > 45 | 34.33% | > 45 | 17.07 | – | – | 4.08 | 67 |
| COc1ccc(-c2noc(C3CCN(C(=O)CNC(=O)N4CCCCC4)CC3)n2)cc1OC [Compound 143] | > 45 | 95.01% | > 45 | 79.38% | > 45 | 96.06 | – | – | 16.9 | 73 |
| Cc1nn(C)c2cc(-c3noc(N4CCN(C(=O)c5cc(-c6ccccc6)no5)CC4)n3)ccc12 [Compound 103] | > 45 | 5.27% | > 45 | 93.33% | > 45 | 68.60 | – | – | 2.02 | 75 |
| COc1ccc(C(=O)NCC(=O)N2CCC(c3nc(-c4ccc5c(C)nn(C)c5c4)no3)CC2)nc1 [Compound 151] | > 45 | 2.67% | > 45 | 75.63% | > 45 | 20.68 | – | – | 0.045 | 405 |
| Cn1ncc2ccc(-c3noc(C4CCN(C(=O)CNC(=O)c5ccccc5)CC4)n3)cc21 [compound 94] | > 45 | – | > 45 | – | 39.3 | – | – | – | 0.04 | – |
